Among the test systems are NCI-H460 lung; HT29 colon; SK-MEL-2 melanoma; NCI-H23 lung; UACC-257 melanoma; MOLT-4 leukemia; A549 NSCLC; RPMI-8226 leukemia; SR leukemia.
Common to all, as to experiment: DTP human tumour cell line panel, 48 h

Broadly, the GI50 is the concentration that inhibits growth by half. As a reminder, the TGI is the concentration giving total growth inhibition.

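The compound was tested at five concentrations on cells cultured in 96-well plates, with a 48-hour exposure period. GI50 marks 50% less growth. TGI denotes the concentration required for complete inhibition of growth.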

Take `N.N.N.N.N.O=C([O-])c1nn[n-]n1.[Cl-].[Co+3]`: the GI50 in the assay on NCI-H460 lung, in the assay on HT29 colon, in the assay on SK-MEL-2 melanoma, with NCI-H23 lung, with UACC-257 melanoma and in the assay on MOLT-4 leukemia was more than 100 µM throughout. The GI50 in the assay with A549 NSCLC, in the assay on RPMI-8226 leukemia and in the assay on SR leukemia was more than 100 µM throughout. Further, the TGI in the assay with NCI-H460 lung, in the assay with HT29 colon, in the assay on SK-MEL-2 melanoma, in the assay with NCI-H23 lung, in the assay with UACC-257 melanoma and with MOLT-4 leukemia was more than 100 µM throughout. In addition, the TGI in the assay with A549 NSCLC, with RPMI-8226 leukemia and in the assay with SR leukemia was more than 100 µM throughout.
For the compound `Nc1ccc(/C=C/c2ccnc3ccccc23)cc1`, the TGI in the assay with NCI-H460 lung stood at 49.1 µM; in the assay with HT29 colon, 65.1 µM; with SK-MEL-2 melanoma, 37.6 µM; with NCI-H23 lung, 50.1 µM; in the assay with UACC-257 melanoma, 57.8 µM; in the assay on MOLT-4 leukemia, 38.7 µM. For the same compound, the results for the TGI in the assay on A549 NSCLC, in the assay with RPMI-8226 leukemia and with SR leukemia were 71.4 µM, 52.7 µM and 32.4 µM, respectively.
Take `CCOC(=O)NC(=O)c1cn(CCOCCOC(=O)NCCCCCCNC(=O)OCCOCCn2cc(C(=O)NC(=O)OCC)c(=O)[nH]c2=O)c(=O)[nH]c1=O`: the TGI in the assay on NCI-H460 lung, in the assay on HT29 colon, in the assay with SK-MEL-2 melanoma, in the assay with NCI-H23 lung, with UACC-257 melanoma and with A549 NSCLC was more than 100 µM in each case. Besides, the TGI in the assay on RPMI-8226 leukemia and in the assay on SR leukemia was more than 100 µM in each case.
In the case of `CC1=C(C)CC2(CCCCC2=O)S(=O)C1` (stereo not drawn), the TGI with NCI-H460 lung, in the assay with HT29 colon, in the assay on SK-MEL-2 melanoma, in the assay on NCI-H23 lung, in the assay with UACC-257 melanoma and in the assay on MOLT-4 leukemia was more than 100 µM each time. Also, the TGI with A549 NSCLC, with RPMI-8226 leukemia and with SR leukemia was more than 100 µM throughout.
For `Cc1ccccc1N(CCC#N)C1=NN(C(=O)CC(=O)Nc2ccccc2)C(c2ccccc2)C1` (stereo not drawn), the TGI in the assay on NCI-H460 lung, with HT29 colon, in the assay on SK-MEL-2 melanoma, in the assay with NCI-H23 lung, in the assay with UACC-257 melanoma and in the assay on MOLT-4 leukemia was more than 100 µM in each case. Also, the TGI in the assay with A549 NSCLC, in the assay with RPMI-8226 leukemia and in the assay with SR leukemia was more than 100 µM in each case.
Turning to `Cn1cc(C(=O)c2ccccc2)ccc1=O`, the total growth inhibition concentration (TGI) with NCI-H460 lung, in the assay with HT29 colon, in the assay on SK-MEL-2 melanoma, with NCI-H23 lung, in the assay on UACC-257 melanoma and with MOLT-4 leukemia was more than 100 µM throughout. The TGI in the assay on A549 NSCLC, in the assay on RPMI-8226 leukemia and with SR leukemia was more than 100 µM in each case.
As for `CN(C)P(=O)(/C(N)=N/Nc1ccc([N+](=O)[O-])cc1)N(C)C`, the TGI in the assay on NCI-H460 lung, with SK-MEL-2 melanoma, in the assay on NCI-H23 lung, with UACC-257 melanoma, in the assay on MOLT-4 leukemia and in the assay with A549 NSCLC was more than 100 µM each time. For the same compound, the total growth inhibition concentration (TGI) in the assay with RPMI-8226 leukemia and in the assay with SR leukemia was more than 100 µM throughout.
As for `COC(=O)c1cccc2cccc(C(=O)Nc3ccc(C)cc3C)c12`, the TGI with NCI-H460 lung, in the assay with HT29 colon, with SK-MEL-2 melanoma, in the assay with NCI-H23 lung, with UACC-257 melanoma and in the assay on MOLT-4 leukemia was more than 100 µM in each case. Also, the TGI with A549 NSCLC, in the assay on RPMI-8226 leukemia and in the assay with SR leukemia was more than 100 µM throughout.
Turning to `CCOC(=O)CN=c1nc(SC)sc2c(C(=O)OCC)nc(Sc3ccccc3)n12`, the TGI in the assay on HT29 colon, in the assay with SK-MEL-2 melanoma, in the assay with UACC-257 melanoma, in the assay on RPMI-8226 leukemia and in the assay on SR leukemia was more than 100 µM in each case.
For `COC(=O)C1=NC(=S)NC(c2ccccc2)C1c1nc2ccccc2s1` (stereo not drawn), the TGI in the assay on NCI-H460 lung, in the assay on HT29 colon, with SK-MEL-2 melanoma, in the assay with NCI-H23 lung, with UACC-257 melanoma and in the assay with MOLT-4 leukemia was more than 100 µM in each case. The TGI in the assay on A549 NSCLC and in the assay on SR leukemia was more than 100 µM in each case.
Consider `Cc1ccc2nc3c(C(=O)NCCN(C)C)cccc3nc2c1`, for which the TGI is 15.4 µM in the assay on HT29 colon; 12.9 µM in the assay on SK-MEL-2 melanoma; 17.1 µM in the assay on NCI-H23 lung; 14.1 µM in the assay on UACC-257 melanoma; 6.29 µM in the assay with MOLT-4 leukemia; more than 100 µM in the assay on A549 NSCLC. In addition, the values for the TGI with RPMI-8226 leukemia and with SR leukemia were 40.8 µM and more than 100 µM, respectively.
Regarding `COc1c2c(cc3nc4ccccc4nc13)CCC(C(C)(C)O)C2` (stereo not drawn), the concentration for total growth inhibition (TGI) in the assay on NCI-H460 lung, in the assay on HT29 colon, in the assay on SK-MEL-2 melanoma, in the assay on NCI-H23 lung, in the assay on UACC-257 melanoma and with MOLT-4 leukemia was more than 100 µM each time. In addition, the TGI with A549 NSCLC and in the assay with SR leukemia was more than 100 µM in each case.
